{"source": "paper PMC4109680", "about": "“Identification and Preclinical Pharmacology of the γ-Secretase Modulator BMS-869780” (International Journal of Alzheimer's Disease, 2014)", "key": {"Aβ1-x (H4-APPsw)": {"tested_on": "Aβ1-x (H4-APPsw)", "assay": "Aβ1-42, Aβ1-40 and Aβ1-x ELISA in H4-APPsw cultures at high concentrations", "assay_type": "cell-based, human", "conditions": "overnight", "protocol": "IC50 determinations for Aβ1-42 and Aβ1-40 in H4-APPsw cultures in 384-well format were determined using homogeneous time-resolved fluorescence immunoassays as previously described. The principle of these assays is illustrated in Figures 1(c) and 1(d). In other experiments using H4-APPsw cultures, Aβ was quantified by ELISA; for Aβ1-42 the combination of monoclonal antibodies was 26D6 and 565-HRP; for Aβ1-40 it was TSD and 26D6-HRP, and for Aβ1-x it was 4G8 and 26D6-HRP. In some experiments a novel 4-plex Aβ electrochemiluminescence immunoassay was used (Mesoscale Discovery catalog number N45ZA-1). […] For Aβ in transiently transfected PS1/PS2 dKO fibroblasts, Aβ1-42 was quantified using an ELISA kit (WACO), and Aβ1-40 was quantified by ELISA as described above for H4-APPsw cultures. […] For the rat and mouse experiments illustrated in Figures 7 and 8, brain samples were prepared by solid phase extraction, and endogenous rat brain Aβ1-42 and Aβ1-40 were quantified by ELISA as previously described for wild type mice. […] For brain extracts made in 0.2% diethylamine, Aβ1-42, Aβ1-40, Aβ1-38, and Aβ1-37 concentrations in brain and cell culture samples were determined by fitting the results of immunoassays against calibration curves derived from a range of dilutions of the corresponding synthetic peptides on each assay plate using a quadratic curve fit (Graphpad Prizm 5.0). […]"}, "APP-CTF (H4-APPsw)": {"tested_on": "APP-CTF (H4-APPsw)", "assay": "Western blot of APP-CTFα and APP-CTFβ in H4-APPsw cell lysates", "assay_type": "cell-based, human", "conditions": "overnight; for increase in APP-CTFα: BMS-869780 100-3000 nM averaged across doses, BMS-299897 30-300 nM; for APP-CTFβ levels: high concentrations", "protocol": "For western blotting of APP-CTF in cell lysates, H4-APPsw cell cultures in T-75 flasks were rinsed with DPBS, harvested, isolated by centrifugation, and stored at −80°C until needed. Cells were suspended in SDS sample buffer (20,000 cells/μL), boiled for 10 min, and centrifuged 3000 ×g for 5 min. Total protein content was determined using an assay kit (EZQ, Invitrogen cat number R33200). Proteins were separated by electrophoresis on Bis-Tris 16% polyacrylamide gels and transferred to nitrocellulose filters. APP-CTFβ was detected using 26D6-HRP, and APP-CTFα was detected using ct695 polyclonal (Invitrogen, cat number 51-2700) and secondary goat anti-rabbit horseradish peroxidase conjugate (Zymed, catalog number 62-6120). Chemiluminescence images were captured and quantified using an imaging station (Fuji model number LAS-3000). The ct695 western blots also show APP-CTFβ, which migrates as a fainter band above APP-CTFα under these conditions. To confirm the consistency of sample loading, the APP-CTF western blots were reprobed for glyceraldehyde-3-phosphate dehydrogenase (GAPDH) using monoclonal 1D4 (Enzo Life Sciences, cat number CSA-335).\nFigure 4 BMS-869780 had minimal effect on APP-CTF accumulation in vitro. H4-APPsw cell cultures were treated overnight with the indicated concentrations of BMS-869780, BMS-299897 or vehicle (0.1% DMSO). (a) Cells were harvested and analyzed by western blotting for APP-CTFα, APP-CTFβ, and GAPDH. Lane 1; culture treated with vehicle 0.1% DMSO. Lanes 2–5; cultures treated with BMS-869780 at 100 nM, 300 nM, 1000 nM, or 3000 nM, respectively. Lanes 6–8; cultures treated with BMS-299897 at 30 nM, 100 nM, or 300 nM, respectively. (b) Levels of Aβ1-42 (red; left Y-axis), Aβ1-40 (green; right Y-axis), and Aβ1-x (grey; right Y-axis) were quantified."}}, "data": [{"smiles": "C[C@H](c1ccc(F)cc1CCCC(=O)O)N(c1cc(F)ccc1F)S(=O)(=O)c1ccc(Cl)cc1", "note": "[BMS-299897, reference compound]", "values": [{"measurement": "overall levels of Aβ1-x", "setting": "Aβ1-x (H4-APPsw)", "result": "dramatically reduced all Aβ1-x peptides"}, {"measurement": "increase in APP-CTFα", "setting": "APP-CTF (H4-APPsw)", "result": 8, "unit": "fold"}, {"measurement": "APP-CTFβ levels", "setting": "APP-CTF (H4-APPsw)", "result": "not affected"}]}, {"smiles": "COc1cc(Nc2nc3n(n2)CCCC[C@H]3c2ccc(F)cc2)ccc1-n1cnc(Cl)c1", "note": "[BMS-869780]", "values": [{"measurement": "overall levels of Aβ1-x", "setting": "Aβ1-x (H4-APPsw)", "result": "without any decrease in the overall levels of Aβ1-x"}, {"measurement": "increase in APP-CTFα", "setting": "APP-CTF (H4-APPsw)", "result": 1.4, "unit": "fold"}, {"measurement": "APP-CTFβ levels", "setting": "APP-CTF (H4-APPsw)", "result": "not affected"}]}]}
